Drawing on patent publication US8901116B2, “Method for treating pain, anxiety or depression using carbamoyloxy alkanoyl piperazine compound” (SK Biopharmaceuticals Co., Ltd., priority 2007, dated 2014), this text covers inhibition in vivo and change in vivo for 18 compounds.

Assay type in all cases: in vivo
Experiment [1] relates to male ICR mouse. Nature of the experiment: Acetic acid-induced writhing test in mouse. Particulars: po, p.o, acetic acid i.p. 1 hour after dosing, writhing counted for 10 minutes, read-out: Writhing Test Suppression of pain response. An outline of the steps: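 Test material given orally at 10 mg/kg to male mice (30–35 g); 1 h later 0.8% acetic acid injected i.p. Writhes counted over 10 min immediately afterwards; analgesia expressed as percent suppression of writhing versus vehicle group.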

Experiment [2] has as its system male ICR mouse. Nature of the experiment: Hot plate test in mouse. To be noted: po, p.o, 1 hour after dosing, hot plate 55° C., read-out: Hot Plate Test Increase in latency of avoidance response. In a few lines: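 Male ICR mice (25–30 g) dosed orally at 30 mg/kg and placed on a 55° C. hot plate 1 h later. Latency to forefoot or hind-leg avoidance (flinching, licking, jumping) recorded; effect expressed as % increase in latency over vehicle group.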

In experiment [3] the test system is male ICR mouse. Nature of the experiment: Elevated plus maze (EPM) test in mouse. Particulars: po, p.o, 1 hour after dosing, 5 minutes observation, read-out: Elevated Plus Maze Change index in Open-Arm Time. In a few lines: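 Male ICR mice (20–25 g) received test material orally at 10 mg/kg, and open-arm time on the maze was recorded over 5 min starting 1 h after dosing. Value is the change index in open-arm time: (treated − vehicle)/vehicle × 100%.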

In experiment [4] the test system is male ICR mouse. The experiment can be described thus: Head twitch potentiation induced by 5-HTP (5-HTP potentiation test) in mouse. To be noted: po, 0.5 h, p.o, 5-HTP 80 mg/kg + Carbidopa 25 mg/kg i.p. 30 minutes after dosing, head twitches counted for 2 minutes, negative = 5-HT2A antagonist, read-out: 5-HTP Potentiation Increase rate in Head Twitch No. In a few lines: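 Male ICR mice (20-25 g) dosed orally at 30 mg/kg; 30 min later given 5-HTP (80 mg/kg) plus carbidopa (25 mg/kg) i.p. Head twitches counted for 2 min starting 30 min after i.p. dosing; effect expressed as % increase in twitch number versus vehicle group.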

As for `NC(=O)OC(CC(=O)N1CCN(C(c2ccc(F)cc2)c2ccc(F)cc2)CC1)c1ccccc1` (stereo not drawn) [Example 21, carbamic acid 3-{4-[bis-(4-fluoro-phenyl)-methyl]-piperazin-1-yl}-3-oxo-1-phenyl-propyl ester], the inhibition in vivo at 10 mg/kg in the experiment on male ICR mouse [1] worked out at 32.5%. Also, the change in vivo at 30 mg/kg was 51.4% with male ICR mouse [2] and -7% in the experiment with male ICR mouse [4]. The change in vivo at 10 mg/kg in the experiment with male ICR mouse [3] came to 67.5%.
Take `COc1cc(OC)cc(N2CCN(C(=O)CC(OC(N)=O)c3ccccc3)CC2)c1` (stereo not drawn) [Example 11, carbamic acid 3-[4-(3,5-dimethoxy-phenyl)-piperazin-1-yl]-3-oxo-1-phenyl-propyl ester]: the inhibition in vivo at 10 mg/kg in the experiment on male ICR mouse [1] worked out at 5.5%. For the same compound, the values for the change in vivo at 30 mg/kg in the experiment on male ICR mouse [2] and in the experiment on male ICR mouse [4] were 46.1% and 31.3%, respectively. Moreover, the change in vivo at 10 mg/kg with male ICR mouse [3] was found to be 19.8%.
As to `NC(=O)O[C@@H](CC(=O)N1CCN(c2ccc(O)cc2)CC1)c1ccccc1` [Example 84, (S)-carbamic acid 3-[4-(4-hydroxy)-phenylpiperazin-1-yl]-3-oxo-1-phenyl-propyl ester], in the experiment on male ICR mouse [1], the inhibition in vivo at 10 mg/kg stood at 32%. The change in vivo at 30 mg/kg is 13.5% with male ICR mouse [2] and -37.5% with male ICR mouse [4]. In the experiment with male ICR mouse [3], the change in vivo at 10 mg/kg came out at 65.6%.
Turning to `O=C1Nc2ccccc2C(CC(=O)N2CCN(c3ccccc3)CC2)O1` (stereo not drawn) [Example 77, 4-[2-oxo-2-(4-phenyl-piperazin-1-yl)-ethyl]-1,4-dihydro-benzo[d][1,3]oxazin-2-one], in the experiment with male ICR mouse [1], the inhibition in vivo at 10 mg/kg turned out to be 26.4%. Further, the change in vivo at 30 mg/kg in the experiment on male ICR mouse [2] came to 30.4%; in the experiment with male ICR mouse [4] it was 25%. Moreover, the change in vivo at 10 mg/kg with male ICR mouse [3] was found to be 4.9%.
For the compound `Cc1ccc(N2CCN(C(=O)C[C@@H](OC(N)=O)c3ccccc3)CC2)cc1` [Example 80, (R)-carbamic acid 3-[4-(4-methyl)-phenylpiperazin-1-yl]-3-oxo-1-phenyl-propyl ester], the inhibition in vivo at 10 mg/kg in the experiment on male ICR mouse [1] stood at 36.3%. The change in vivo at 30 mg/kg with male ICR mouse [2] is 16.7%; in the experiment with male ICR mouse [4], 12.5%. Besides, the change in vivo at 10 mg/kg in the experiment with male ICR mouse [3] was 41.2%.
On to `NC(=O)OC(CC(=O)N1CCN(c2ccccc2)CC1)c1cccc(Br)c1` (stereo not drawn) [Example 46, carbamic acid 1-(3-bromo-phenyl)-3-oxo-3-(4-phenyl-piperazin-1-yl)-propyl ester], for which the inhibition in vivo at 10 mg/kg in the experiment on male ICR mouse [1] stood at 71.3%. For the same compound, the results for the change in vivo at 30 mg/kg in the experiment with male ICR mouse [2] and in the experiment on male ICR mouse [4] were 33.1% and 40.3%, respectively. Further, the change in vivo at 10 mg/kg in the experiment with male ICR mouse [3] is 5.7%.
With `Cc1cccc(C(CC(=O)N2CCN(c3ccccc3)CC2)OC(N)=O)c1` (stereo not drawn) [Example 50, carbamic acid 1-(3-methyl-phenyl)-3-oxo-3-(4-phenyl-piperazin-1-yl)-propyl ester], in the experiment on male ICR mouse [1], the inhibition in vivo at 10 mg/kg came to 15%. The change in vivo at 30 mg/kg in the experiment with male ICR mouse [2] was 31.3%; in the experiment with male ICR mouse [4] it was -21.3%. In addition, in the experiment on male ICR mouse [3], the change in vivo at 10 mg/kg stood at 65.4%.
Consider `NC(=O)OC(CC(=O)N1CCN(c2ccccc2)CC1)c1ccc(C(F)(F)F)cc1` (stereo not drawn) [Example 31, carbamic acid 3-oxo-3-(4-phenyl-piperazin-1-yl)-1-(4-trifluoromethyl-phenyl)-propyl ester], for which the inhibition in vivo at 10 mg/kg in the experiment with male ICR mouse [1] came out at 21.6%. For the same compound, the values for the change in vivo at 30 mg/kg with male ICR mouse [2] and with male ICR mouse [4] were 20.1% and 10%, respectively. Also, the change in vivo at 10 mg/kg with male ICR mouse [3] is 35.6%.
Regarding `NC(=O)O[C@@H](CC(=O)N1CCN(c2ccc(F)cc2)CC1)c1ccccc1` [Example 79, (S)-carbamic acid 3-[4-(4-fluoro)-phenylpiperazin-1-yl]-3-oxo-1-phenyl-propyl ester], the inhibition in vivo at 10 mg/kg with male ICR mouse [1] stood at 40.7%. Besides, the results for the change in vivo at 30 mg/kg in the experiment on male ICR mouse [2] and with male ICR mouse [4] were 29.3% and -30%, respectively. Moreover, the change in vivo at 10 mg/kg with male ICR mouse [3] is -5.1%.
As for `NC(=O)OC(CC(=O)N1CCN(c2ccc(Cl)c(C(F)(F)F)c2)CC1)c1ccccc1` (stereo not drawn) [Example 27, carbamic acid 3-[4-(4-chloro-3-trifluoromethyl-phenyl)-piperazin-1-yl]-3-oxo-1-phenyl-propyl ester], the inhibition in vivo at 10 mg/kg in the experiment with male ICR mouse [1] was determined as 29.1%. Also, the change in vivo at 30 mg/kg was 41.2% with male ICR mouse [2] and -78.1% in the experiment with male ICR mouse [4]. The change in vivo at 10 mg/kg with male ICR mouse [3] is 66.7%.
Regarding `NC(=O)OC(CC(=O)N1CCN(c2cccc(F)c2)CC1)c1ccccc1` (stereo not drawn) [Example 30, carbamic acid 3-[4-(3-fluoro-phenyl)-piperazin-1-yl]-3-oxo-1-phenyl-propyl ester], the inhibition in vivo at 10 mg/kg in the experiment with male ICR mouse [1] was 9.2%. For the same compound, the values for the change in vivo at 30 mg/kg in the experiment with male ICR mouse [2] and in the experiment with male ICR mouse [4] were 27.1% and 40%, respectively. For the same compound, the change in vivo at 10 mg/kg in the experiment on male ICR mouse [3] came out at 102%.
For the compound `NC(=O)OC(CC(=O)N1CCN(c2ccccc2)CC1)c1ccccc1Cl` (stereo not drawn) [Example 43, carbamic acid 1-(2-chloro-phenyl)-3-oxo-3-(4-phenyl-piperazin-1-yl)-propyl ester], the inhibition in vivo at 10 mg/kg in the experiment with male ICR mouse [1] is 46%. Besides, the change in vivo at 30 mg/kg was 26.7% in the experiment on male ICR mouse [2] and 211% with male ICR mouse [4]. The change in vivo at 10 mg/kg in the experiment with male ICR mouse [3] stood at 19.7%.
As to `NC(=O)O[C@@H](CC(=O)N1CCN(c2ccc(Cl)c(Cl)c2)CC1)c1ccccc1` [Example 66, (S)-carbamic acid 3-[4-(3,4-dichloro-phenyl)-piperazin-1-yl]-3-oxo-1-phenyl-propyl ester], the inhibition in vivo at 10 mg/kg in the experiment with male ICR mouse [1] turned out to be 62.5%. Moreover, the results for the change in vivo at 30 mg/kg in the experiment on male ICR mouse [2] and in the experiment on male ICR mouse [4] were 27.8% and -39.5%, respectively. Further, the change in vivo at 10 mg/kg in the experiment on male ICR mouse [3] was 50.6%.
In the case of `NC(=O)OC(CC(=O)N1CCN(c2ccccc2)CC1)c1cccc(Cl)c1` (stereo not drawn) [Example 51, carbamic acid 1-(3-chloro-phenyl)-3-oxo-3-(4-phenyl-piperazin-1-yl)-propyl ester], the inhibition in vivo at 10 mg/kg in the experiment on male ICR mouse [1] was 50.8%. Further, the change in vivo at 30 mg/kg with male ICR mouse [2] is 29.2%; in the experiment on male ICR mouse [4] it was 40.3%. Moreover, in the experiment with male ICR mouse [3], the change in vivo at 10 mg/kg is -0.7%.
For the compound `NC(=O)OC(CC(=O)N1CCN(c2ccccc2F)CC1)c1ccccc1` (stereo not drawn) [Example 29, carbamic acid 3-[4-(2-fluoro-phenyl)-piperazin-1-yl]-3-oxo-1-phenyl-propyl ester], the inhibition in vivo at 10 mg/kg in the experiment on male ICR mouse [1] was 34.5%. The change in vivo at 30 mg/kg is 0% with male ICR mouse [2] and 14.3% in the experiment with male ICR mouse [4]. The change in vivo at 10 mg/kg in the experiment on male ICR mouse [3] came out at 92.3%.
For `NC(=O)OC(CC(=O)N1CCN(c2ccc(Cl)c(Cl)c2)CC1)c1ccccc1` (stereo not drawn) [Example 3, carbamic acid 3-[4-(3,4-dichloro-phenyl)-piperazin-1-yl]-3-oxo-1-phenyl-propyl ester], the inhibition in vivo at 10 mg/kg in the experiment with male ICR mouse [1] was determined as 65%. The change in vivo at 30 mg/kg in the experiment with male ICR mouse [2] came to 38.5%; with male ICR mouse [4] it was 54.5%. Moreover, the change in vivo at 10 mg/kg with male ICR mouse [3] was 9.7%.
Regarding `CC(C)(C)c1ccc(N2CCN(C(=O)CC(OC(N)=O)c3ccccc3)CC2)cc1` (stereo not drawn) [Example 17, carbamic acid 3-[4-(4-tert-butyl-phenyl)-piperazin-1-yl]-3-oxo-1-phenyl-propyl ester], the inhibition in vivo at 10 mg/kg with male ICR mouse [1] was 25.3%. Also, the change in vivo at 30 mg/kg with male ICR mouse [2] came to 29.4%; in the experiment on male ICR mouse [4] it was 10%. Besides, the change in vivo at 10 mg/kg in the experiment on male ICR mouse [3] stood at 34%.
With `NC(=O)OC(CC(=O)N1CCN(c2cnc3ccccc3n2)CC1)c1ccccc1` (stereo not drawn) [Example 22, carbamic acid 3-oxo-1-phenyl-3-(4-quinoxalin-2-yl-piperazin-1-yl)-propyl ester], in the experiment on male ICR mouse [1], the inhibition in vivo at 10 mg/kg was 29.4%. For the same compound, the change in vivo at 30 mg/kg with male ICR mouse [2] was 38%; in the experiment on male ICR mouse [4], 3.9%. Also, the change in vivo at 10 mg/kg in the experiment on male ICR mouse [3] was -21.2%.
